Values after ≈ are worked out from the molar mass of the structure shown. Like-named read-outs stand apart in the source and are kept apart here. One block for each molecule: values may come before it.
What was measured:
[1] = test system: HepG2 cells; test: Hepatocellular viability assay (resazurin reduction); format: cell-based, Human; conditions: for IC50: Homo sapiens, read-out: IC50, HepG2 cell viability
Description: HepG2 cells (1.5 × 10^4 cells per 100 µL) were seeded into black, clear-bottom 96-well plates and incubated at 37 °C with 5% CO2 for 24 h. The test compounds were prepared in complete media at final concentrations of 0.01, 0.1, 1, 10, and 100 μM and added to each well. For the negative control, 0.2% (v/v) DMSO was used to represent maximum viability, while 0.01% (v/v) Triton X-100 was used as the positive control for minimum viability. The plates were incubated at 37 °C under 5% CO2. After 20 h of incubation, 20% (v/v) CellTiter-Blue Cell Resazurin reagent was added to each well, followed by an additional 2–4 h of incubation. Fluorescence intensity, indicating resorufin levels, was measured at 590 nm using a Synergy H1 reader was obtained from Agilent Technologies (Santa Clara, CA, USA). Each data point was normalized based on the maximum and minimum cell viability data and expressed as % Relative viability using the following formula: % Relative viability=(Experimental data−Minimal viability data)/(Maximal viability data−Minimal viability data)×100

[2] = set-up: method as in PMID 18039808; conditions: oral 500 mg/kg dose in animals; cited from earlier work
[3] = biological target: T1, hERG (Homo sapiens, UniProt Q12809); test: hERG inhibition assay by automated patch-clamp electrophysiology in hERG-overexpressing HEK293 cells; format: cell-based
T1 construct: host or cells: HEK293 cells stably overexpressing hERG
T1 sequence (Q12809 whole entry): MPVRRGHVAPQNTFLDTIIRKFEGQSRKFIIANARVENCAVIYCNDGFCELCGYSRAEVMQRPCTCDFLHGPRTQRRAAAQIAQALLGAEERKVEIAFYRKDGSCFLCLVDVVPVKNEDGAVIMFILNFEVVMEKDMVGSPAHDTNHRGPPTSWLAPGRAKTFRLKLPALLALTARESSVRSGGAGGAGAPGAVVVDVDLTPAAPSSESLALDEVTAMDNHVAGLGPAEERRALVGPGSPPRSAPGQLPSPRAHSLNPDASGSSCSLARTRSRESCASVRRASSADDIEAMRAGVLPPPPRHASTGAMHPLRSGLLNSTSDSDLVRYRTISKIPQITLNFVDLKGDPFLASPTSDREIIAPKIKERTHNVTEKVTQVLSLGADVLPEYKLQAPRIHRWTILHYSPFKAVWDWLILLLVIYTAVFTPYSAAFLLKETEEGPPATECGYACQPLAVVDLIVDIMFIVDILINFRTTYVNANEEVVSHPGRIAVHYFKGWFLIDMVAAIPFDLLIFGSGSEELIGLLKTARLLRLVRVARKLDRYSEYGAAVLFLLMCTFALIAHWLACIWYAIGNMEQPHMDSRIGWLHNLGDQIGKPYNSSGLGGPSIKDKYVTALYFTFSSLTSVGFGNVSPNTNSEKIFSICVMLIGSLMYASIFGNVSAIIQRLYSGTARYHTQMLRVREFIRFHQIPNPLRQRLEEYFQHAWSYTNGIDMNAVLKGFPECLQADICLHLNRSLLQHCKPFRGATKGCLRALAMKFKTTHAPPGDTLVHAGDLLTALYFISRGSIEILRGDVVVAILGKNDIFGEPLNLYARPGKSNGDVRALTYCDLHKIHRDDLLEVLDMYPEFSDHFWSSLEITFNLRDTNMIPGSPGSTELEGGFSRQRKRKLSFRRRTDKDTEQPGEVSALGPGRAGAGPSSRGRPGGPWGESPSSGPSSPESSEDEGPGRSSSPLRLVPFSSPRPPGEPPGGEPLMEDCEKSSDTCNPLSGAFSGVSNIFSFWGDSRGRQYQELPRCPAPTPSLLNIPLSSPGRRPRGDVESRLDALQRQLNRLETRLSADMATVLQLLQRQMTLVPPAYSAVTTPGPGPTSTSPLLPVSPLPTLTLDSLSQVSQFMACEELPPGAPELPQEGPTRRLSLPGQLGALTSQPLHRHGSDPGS
Description: hERG channel inhibition assay was performed using patch-clamp electrophysiology. HEK293 cells stably overexpressing hERG channels (Eurofins Scientific, Luxembourg) were cultured in Dulbecco’s Modified Eagle Medium F-12 (GIBCO, Carlsbad, CA, USA) supplemented with 10% (v/v) fetal bovine serum (FBS) and 1% penicillin/streptomycin at 37 °C with 5% CO2 until reaching approximately 80% confluency. Cells were then subcultured using trypsin (HyClone, Marlborough, MA, USA), to enzymatically detach adherent HEK293 cells, centrifuged, and resuspended in the External standard buffer (Nanion Technologies, Munich, Germany).
A gigaohm seal was formed after cell seeding in the NPC-16 chip (Nanion Technologies) wells. Brief suction pulses were applied to achieve whole-cell configuration. The hERG channel activity was assessed using a voltage protocol consisting of steps to −80 mV, −40 mV, +40 mV, −40 mV, and back to −80 mV, triggering tail currents. Each well’s peak hERG tail current served as the baseline activity level. To evaluate the inhibitory effects of the six tested compounds, their stock solutions ([…]) were diluted with the external standard buffer to final concentrations of 100 µM, 10 µM, 1 µM, 0.1 µM, and 0.01 µM, and automatically applied to the wells. Subsequently, hERG channel activity was measured again using the same voltage protocol. The relative changes in hERG activity induced by the compounds were calculated and expressed as percentages using the following formula:% hERG activity = (Peak hERG tail current after compound treatment/Peak hERG tail current before compound treatment) × 100

[4] = test system: Differentiated ReNcell VM cells; test: Neuronal viability assay, differentiated cells (resazurin); format: cell-based; conditions: Homo sapiens, read-out: IC50, differentiated ReNcell VM cell viability
Description: ReNcell VM cells were seeded into Matrigel®-coated black, clear-bottom 96-well plates at a density of 3.0 × 10^4 cells per well for differentiation assays. The cells were maintained in ReNcell NSC Maintenance Medium (Merck Millipore, Burlington, MA, USA) without growth factors to induce differentiation. The culture medium was changed every two days for three weeks.
(§1) Differentiated ReNcell VM cells were seeded into Matrigel®-coated black, clear-bottom 96-well plates at densities of 3.0 × 10^4 per well. The ReNcell VM cells were incubated at 37 °C with 5% CO2 in the ReNcell Maintenance Media (Merck Millipore, MA, USA) without growth factor. The media was changed every two days for three weeks. Both cell types were treated with test compounds at 0.01, 0.1, 1, 10, and 100 μM. DMSO was used as the control for maximum cell viability, and Triton X-100 was the control for minimum viability. After 20 h of incubation at 37 °C with 5% CO2. Cell viability was assessed using the CellTiter-Blue® Cell Resazurin reagent.

[5] = test system: Undifferentiated ReNcell VM cells; test: Neuronal viability assay, undifferentiated cells (resazurin); format: cell-based, human; conditions: for IC50: 24 h, read-out: IC50, undifferentiated ReNcell VM cell viability; for Inhibition of undifferentiated ReNcell NSC viability: at concentrations up to 100 µM, compared to Triton X-100
Description: Undifferentiated ReNcell VM cells were seeded into Matrigel®-coated black, clear-bottom 96-well plates at densities of 1.5 × 10^4 per well. The cells were maintained in ReNcell NSC Maintenance Media (Merck Millipore, MA, USA), supplemented with 10% EGF and 1% penicillin/streptomycin, and were incubated at 37 °C with 5% CO2 for 24 h.
as §1

[6] = dose of 10 g, healthy volunteers; cited from earlier work
[7] = rats, oral dose of 100 mg/kg body weight; read-out: plasma Cmax; cited from earlier work
[8] = AL single oral dose of 1000 mg/kg body weight (equivalent to 48.4 mg of ATD), healthy Thai subjects; cited from earlier work
[9] = single oral dose of rikkunshito (7.5 g/day), healthy Japanese subjects; cited from earlier work
[10] = test system: triple-negative breast cancer (TNBC) cells; set-up: method as in PMID 29348769, PMID 31388314, PMID 40952293; conditions: cited from earlier work
[11] = test system: HepG2 cells; set-up: method as in PMID 29348769, PMID 31388314, PMID 40952293; conditions: cited from earlier work
[12] = test system: CYP2E1; set-up: method as in PMID 24146513; conditions: in the Yahom Tultavai formulation; cited from earlier work
[13] = test system: CYP1A2; set-up: method as in PMID 24146513; conditions: in the Yahom Tultavai formulation; cited from earlier work
[14] = test system: CYP2D6; set-up: method as in PMID 37553989; conditions: EPMC as major active compound of the Dephrungsith formulation; cited from earlier work
[15] = test system: CYP1A1; set-up: method as in PMID 24146513; conditions: in the Yahom Tultavai formulation; cited from earlier work
[16] = HepG2 cells, 24 h, resazurin assay, 0.01-100 μM
[17] = hERG-overexpressing HEK293 cells, peak tail current, automated patch clamp, read-out: IC50, hERG channel activity
[18] = differentiated ReNcell VM cells (three weeks without growth factor), 24 h, resazurin assay
[19] = Homo sapiens, undifferentiated ReNcell VM cells, resazurin assay, 0.01-100 μM
[20] = Homo sapiens, ReNcell VM, undifferentiated ReNcell VM cells, resazurin assay, 0.01-100 μM

- IC50 [1, 16]: > 100 µM
Molecule: CCC/C=C1\OC(=O)C2=C1CCC=C2 [LIG, ligustilide]
- plasma Cmax [2]: 660 ng/mL
- IC50 [3, 17]: 37.3 µM
- IC50 [4, 18]: > 100 µM
- IC50 [5, 19]: > 100 µM
- Inhibition of undifferentiated ReNcell NSC viability [5]: did not inhibit

Molecule: COc1cc(/C=C/C(=O)CC(=O)/C=C/c2ccc(O)c(OC)c2)ccc1O [CUR, Curcumin]
- IC50 [1, 16]: 21 µM
- plasma Cmax [6]: 2300 ng/mL
- IC50 [5, 20]: 21.1 µM
- IC50 ([5]; undifferentiated ReNcell VM cells, resazurin assay, 0.01-100 μM): 21.2 µM

Molecule: COc1c(O)cc2oc3cc(O)c(CC=C(C)C)c(O)c3c(=O)c2c1CC=C(C)C [αMG, α-mangostin]
- Cmax [7]: 1380 nM
- IC50 [3, 17]: > 100 µM
- IC50 [4, 18]: 6 µM

Molecule: C/C=C/C#CC#C/C=C/c1ccco1 [ATD, Atractylodin]
- maximal plasma concentration (Cmax) [8]: 50.35 (13.8–52.90) ng/mL
- maximal plasma concentration (Cmax) [9]: 0.002 to 20 ng/mL
- IC50 ([1]; HepG2, 24 h): > 100 µM
- IC50, triple-negative breast cancer (TNBC) cells [10]: 92.11 µg/mL (≈ 505 µM)
- IC50, inhibitory effects on HepG2 cells [11]: 26.19 µg/mL (≈ 144 µM)
- IC50 [3]: 26.4 µM
- IC50 ([3]; human): 22.4 µM
- IC50 ([4]; ReNcell VM): > 100 µM
- IC50 ([5]; Homo sapiens, ReNcell VM): > 100 µM
- Inhibition of undifferentiated ReNcell NSC viability [5]: did not inhibit

- IC50 [1, 16]: > 100 µM
Molecule: C=C1CCC[C@]2(C)CC[C@@H](C(C)(C)O)C[C@@H]12 [BEU, β-eudesmol]
- IC50 [3, 17]: 33.4 µM
- IC50 [4, 18]: > 100 µM
- IC50 [5, 19]: > 100 µM
- Inhibition of undifferentiated ReNcell NSC viability [5]: did not inhibit

Molecule: triton X-100 [reference compound]
- HepG2 cell viability compared to the 0.2% DMSO-treated group [1]: significant decrease in cell viability

- IC50 ([1]; HepG2, 24 h, HepG2 cells, 24 h, resazurin assay, 0.01-100 μM): > 100 µM
Molecule: CCOC(=O)/C=C/c1ccc(OC)cc1 [EPMC, ethyl-p-methoxycinnamate]
- CYP2E1 inhibition in vivo [12]: inhibits
- CYP1A2 inhibition in vivo [13]: inhibits
- CYP2D6 inhibition in vitro [14]: potently inhibits
- IC50 [3, 17]: 53 µM
- IC50 [4, 18]: > 100 µM
- IC50 [5, 20]: > 100 µM
- Inhibition of undifferentiated ReNcell NSC viability [5]: did not inhibit
- CYP1A1 inhibition in vivo [15]: inhibits
